Test results reported in ChEMBL document CHEMBL3860027, “α-Pyrones with Diverse Hydroxy Substitutions from Three Marine-Derived Nocardiopsis Strains” (2016).
Values after ≈ are worked out from the molar mass of the structure shown.

Assays:
Micrococcus luteus = assay: Antibacterial activity against Micrococcus luteus SCSIO ML01 by broth microdilution method; format: functional
Bacillus subtilis = assay: Antibacterial activity against Bacillus subtilis SCSIO BS01 by broth microdilution method; format: functional

MIC (Micrococcus luteus) [µg/mL] | MIC (Bacillus subtilis) [µg/mL] | Structure (SMILES)
32 (≈ 178 µM) | 64 (≈ 355 µM) | CCc1ccc(CC(C)C)c(=O)o1
16 (≈ 81.5 µM) | – | CC(C)Cc1ccc(C(C)O)oc1=O (racemic)

Second part, the compound before the results:

Structure (SMILES) | MIC (Micrococcus luteus) [µg/mL] | MIC (Bacillus subtilis) [µg/mL]
CCc1ccc([C@H](C)CC)oc1=O | 32 (≈ 178 µM) | –
CCc1ccc(CC(C)(C)O)c(=O)o1 | 32 (≈ 163 µM) | –
CC[C@@H](C)c1ccc(C)c(=O)o1 | – | 64 (≈ 385 µM)
